The structures appear in SMILES notation. Where “and” joins values, the source holds several entries; their conditions need not be identical. Equal values may be shown once. Read-outs that look alike come from different tables or passages of the source. Where only a bound is given, the exact number is not on record here.

The values below come from patent US20070299092A1 (Wyeth, priority 2004, published 2007).

The target in data set [1] is T1, human KDR (VEGF-receptor-2) (Homo sapiens, UniProt P35968).
T1 construct: beginning at Met-806; (5′-ATG GAT CCA GAT GM CTC CCA TTG) and ending at Val-1356; made in house
T1 sequence (P35968 806-1356): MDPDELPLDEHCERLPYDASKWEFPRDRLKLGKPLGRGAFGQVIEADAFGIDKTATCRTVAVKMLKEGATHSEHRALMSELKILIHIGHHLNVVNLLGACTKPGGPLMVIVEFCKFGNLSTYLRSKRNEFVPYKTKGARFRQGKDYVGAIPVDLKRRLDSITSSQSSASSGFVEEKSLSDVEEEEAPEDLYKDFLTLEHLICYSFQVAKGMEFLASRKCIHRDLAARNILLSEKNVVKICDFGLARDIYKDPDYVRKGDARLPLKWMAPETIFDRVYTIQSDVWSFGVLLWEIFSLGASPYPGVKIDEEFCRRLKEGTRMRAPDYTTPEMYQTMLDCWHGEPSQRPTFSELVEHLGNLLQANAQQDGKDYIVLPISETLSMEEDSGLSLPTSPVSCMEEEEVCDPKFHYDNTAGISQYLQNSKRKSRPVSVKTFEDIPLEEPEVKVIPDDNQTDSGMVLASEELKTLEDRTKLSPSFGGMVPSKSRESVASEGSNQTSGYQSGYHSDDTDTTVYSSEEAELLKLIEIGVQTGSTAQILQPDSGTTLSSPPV
Description: KDR kinase enzyme assay (DELFIA, KDR-IC-Flag, poly(Glu4-Tyr) peptide). In kind it is biochemical. The note with it: for inhibition at 1 µM: Concentration 1000 nM; for inhibition at 1 µM / inhibition at 0.1 µM: read-out: % Inhibition; for inhibition at 0.1 µM: Concentration 100 nM.

The target in data set [2] is T2, KDR (Homo sapiens, UniProt P35968). Kind of data set: cell-based. The note with it: for IC50: IC50 (nM), inhibition of KDR kinase autophosphorylation in KDR15 cells, KDR15 cells, VEGF 50 ng/ml, phospho-KDR-Y996 immunoblot; for inhibition at 1 µM: read-out: % Inhibition of KDR kinase autophosphorylation in KDR15 cells, compound conc. 1000 nM.
T2 sequence (P35968 20-1356): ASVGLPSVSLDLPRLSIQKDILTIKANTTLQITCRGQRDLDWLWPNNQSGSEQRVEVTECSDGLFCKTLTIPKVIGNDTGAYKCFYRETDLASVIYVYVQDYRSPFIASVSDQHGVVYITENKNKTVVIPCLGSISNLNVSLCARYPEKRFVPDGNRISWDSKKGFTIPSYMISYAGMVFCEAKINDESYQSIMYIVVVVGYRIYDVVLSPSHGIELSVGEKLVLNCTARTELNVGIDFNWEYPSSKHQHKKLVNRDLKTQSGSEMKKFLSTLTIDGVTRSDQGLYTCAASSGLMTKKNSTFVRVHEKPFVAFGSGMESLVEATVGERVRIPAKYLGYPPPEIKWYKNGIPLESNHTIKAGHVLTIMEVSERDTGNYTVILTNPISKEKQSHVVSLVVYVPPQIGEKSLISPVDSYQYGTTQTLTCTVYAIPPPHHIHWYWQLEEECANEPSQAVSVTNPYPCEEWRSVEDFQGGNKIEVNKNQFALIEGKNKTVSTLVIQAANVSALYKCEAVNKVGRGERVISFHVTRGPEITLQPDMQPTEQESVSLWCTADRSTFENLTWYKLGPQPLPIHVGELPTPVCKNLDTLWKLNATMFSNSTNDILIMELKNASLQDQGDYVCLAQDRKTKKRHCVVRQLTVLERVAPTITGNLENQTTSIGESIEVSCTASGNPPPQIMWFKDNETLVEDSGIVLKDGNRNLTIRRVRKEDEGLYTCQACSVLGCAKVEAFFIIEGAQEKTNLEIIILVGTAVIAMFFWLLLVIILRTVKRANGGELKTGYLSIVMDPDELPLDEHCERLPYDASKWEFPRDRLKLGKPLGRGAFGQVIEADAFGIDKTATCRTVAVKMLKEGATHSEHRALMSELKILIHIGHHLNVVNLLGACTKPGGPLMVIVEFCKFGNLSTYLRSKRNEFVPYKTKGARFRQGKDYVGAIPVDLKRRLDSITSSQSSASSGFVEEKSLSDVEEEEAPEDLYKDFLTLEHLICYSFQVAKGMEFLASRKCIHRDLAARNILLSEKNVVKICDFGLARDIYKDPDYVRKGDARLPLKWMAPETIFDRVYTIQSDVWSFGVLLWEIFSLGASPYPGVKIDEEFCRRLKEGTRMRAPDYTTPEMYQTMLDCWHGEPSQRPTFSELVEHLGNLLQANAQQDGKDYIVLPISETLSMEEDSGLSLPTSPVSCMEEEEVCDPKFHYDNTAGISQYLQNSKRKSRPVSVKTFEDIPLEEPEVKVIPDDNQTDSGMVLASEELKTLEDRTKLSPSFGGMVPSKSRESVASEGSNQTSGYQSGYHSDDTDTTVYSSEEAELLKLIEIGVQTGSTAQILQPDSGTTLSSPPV
For data set [3], the target named is T1, human KDR (VEGF-receptor-2). Kind of data set: KDR kinase enzyme assay wash-out experiments (irreversible inhibition). The format is biochemical. The method, then:
To determine if compounds bound irreversibly to enzyme, plates were washed after the enzyme plus compound pre-incubation step and prior to the addition of ATP. Parallel plates were tested wherein one plate was processed exactly as above while a second plate was washed three times in 100 μl of 4 mM HEPES, pH 7.4, to remove unbound compound. 1× Kinase buffer (30 μl of 1 mM MnCl2, 4 mM HEPES, pH 7.4, 20 μM Na3VO4) and 20 μl of ATP/MgCl2 were added to the wash-out plate. Detection of phosphotyrosinylated peptide for both plates was performed as described above.
For each inhibitor shown in Table 2, two IC50 determinations are shown, one under normal conditions and the other where an intermediate wash-out step is carried out. […] If there was a large increase in the IC50 value in the wash-out experiment compared to the experiment where there was no wash-out, then it was determined that the compound was behaving as a conventional reversible binding inhibitor.

The target of data set [4] is T2, KDR. The conditions noted are these: compound conc. 1000 nM.
The test system of data set [5] is Human umbilical vein endothelial cells (HUVEC). Kind of data set: HUVEC proliferation assay, VEGF-dependent growth ([3H]-thymidine incorporation). The format is cell-based. The note with it: for inhibition at 0.1 µM / inhibition at 1 µM / inhibition at 10 µM: Homo sapiens, HUVEC. The method, boiled down:
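HUVEC seeded 4000 cells/well, attached overnight, then given compound in serum/VEGF-free EBM plus 50 ng/ml VEGF (final); parallel plates used EGM2 with 2% serum lacking VEGF. Incubation 4-5 days at 37° C. DNA synthesis measured by 5 h [3H]-thymidine (1 μCi/well) incorporation, scintillation-counted.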
In general terms: Dividing cells build labelled thymidine or BrdU into new DNA.

A word on the IC50: it is the concentration needed to halve the response being measured. Read a low IC50 as greater potency in that assay. In general, inhibition refers to the change of the read-out against control, counted positive when it falls. With `COc1cc2ncnc(NC3=CC(=O)C(C)=CC3=O)c2cc1OC` [Example 4, 2-[(6,7-dimethoxy-4-quinazolinyl)amino]-5-methylbenzo-1,4-quinone], the IC50 in data set [1] (ATP conc. 10 μM) is 80.5 nM and 285 nM and 707 nM; at KDR [2], less than 15.6 nM; in data set [3] (no wash), 285 nM; in data set [3] (wash out) it was greater than 1000 nM. The values for the inhibition at 1 µM (in data set [1] (ATP conc. 10 μM); in data set [1] (ATP conc. 1000 μM); on KDR [2]) were 15%, 12% and 100%, respectively. For the same compound, in data set [3] (IC50 with wash-out step compared to no wash-out step), the “Behaviour as reversible or irreversible binding inhibitor” value is given as “appear to act like reversible binding inhibitors”. Moreover, the “% Inhibition of KDR kinase autophosphorylation in KDR15 cells” value (from here on “% Inhibition … in KDR15 cells”) at KDR [4] was 106%.
As to `COc1cc2ncnc(NC3=CC(=O)C=C(C)C3=O)c2cc1OC` [Example 7, 2-[(6,7-dimethoxy-4-quinazolinyl)amino]-6-methylbenzo-1,4-quinone], the IC50 in data set [1] (ATP conc. 10 μM) is 2.3 nM and 1.3 nM; against KDR [2], 250 nM; in data set [3] (no wash) it was 2.3 nM; in data set [3] (wash out) it was 1.2 nM. The results for the inhibition at 0.1 µM in data set [1] (ATP conc. 10 μM) and in data set [5] (conc. 100 nM) were 85% and 23%, respectively. Moreover, the inhibition at 1 µM in data set [1] (ATP conc. 10 μM) turned out to be 96%; in data set [1] (ATP conc. 1000 μM), 97%; in data set [5] (conc. 1000 nM), 79%. Further, the inhibition at 10 µM in data set [1] (Concentration 10000 nM, ATP conc. 10 μM) is 96%; in data set [5] (conc. 10000 nM), 97%. For the same compound, at KDR [4], the “% Inhibition … in KDR15 cells” value is 41%.
Regarding `COCCOc1cc2ncnc(NC3=CC(=O)C(N(C)c4ccc(N(C)C)cc4)=CC3=O)c2cc1OC` [Example 75, 2-[[4-(dimethylamino)phenyl](methyl)amino]-5-{[6-methoxy-7-(2-methoxyethoxy)quinazolin-4-yl]amino}benzo-1,4-quinone], the IC50 stood at 93 nM in data set [1] (ATP conc. 10 μM), 93 nM in data set [3] (no wash) and 161 nM in data set [3] (wash out). Further, the figures for the inhibition at 0.1 µM in data set [1] (ATP conc. 10 μM) and in data set [5] (conc. 100 nM) were 47% and -22%, respectively. Besides, the inhibition at 1 µM in data set [1] (ATP conc. 10 μM) came to 92%; in data set [1] (ATP conc. 1000 μM) it was 93%; at KDR [2], 45%; in data set [5] (conc. 1000 nM), 41%. The inhibition at 10 µM in data set [5] (conc. 10000 nM) stood at 91%. For the same compound, the “% Inhibition … in KDR15 cells” value at KDR [4] is 61%.
In general, melting point refers to the temperature of the solid-liquid transition. As for `COCCOc1cc2ncnc(NC3=CC(=O)C(N(C)c4ccc(OC)cc4)=CC3=O)c2cc1OC` [Example 78, 2-{[6-methoxy-7-(2-methoxyethoxy)quinazolin-4-yl]amino}-5-[(4-methoxyphenyl)(methyl)amino]benzo-1,4-quinone], the melting point lay within 197 to 198 °C. The IC50 in data set [1] (ATP conc. 10 μM) was 147 nM and 95.9 nM and 406 nM. Also, the IC50 in data set [3] (no wash) was 147 nM and 95.9 nM. For the same compound, the IC50 in data set [3] (wash out) was 514 nM and 150 nM. In addition, in data set [5] (conc. 100 nM), the inhibition at 0.1 µM was 6% and the “% Inhibition of VEGF-dependent growth of HUVEC” value (“% Inhibition … of HUVEC” for short) is given as 9%. The “% Inhibition … of HUVEC” value in data set [5] (conc. 10000 nM) is 94% and 99% and 74%. Moreover, the “% Inhibition … in KDR15 cells” value on KDR [4] turned out to be 61%.
Take `COCCOc1cc2ncnc(NC3=CC(=O)C(N(C)C4CCCCC4)=CC3=O)c2cc1OC` [Example 80, 2-[cyclohexyl(methyl)amino]-5-{[6-methoxy-7-(2-methoxyethoxy)quinazolin-4-yl]amino}benzo-1,4-quinone]: the melting point was 178 to 180 °C. Moreover, the IC50 in data set [1] (ATP conc. 10 μM) is 654 nM. Also, at KDR [2], the IC50 is less than 62.5 nM. The inhibition at 0.1 µM in data set [5] (conc. 100 nM) amounted to 39%. Moreover, in data set [5] (conc. 1000 nM), the inhibition at 1 µM was found to be 85%. Also, the inhibition at 10 µM in data set [5] (conc. 10000 nM) came out at 97%. The “% Inhibition … in KDR15 cells” value at KDR [4] turned out to be 52%.
Take `COc1cc2ncnc(NC3=CC(=O)C(Oc4ccc(Cl)cc4)=CC3=O)c2cc1OC` [Example 94, 2-(4-chlorophenoxy)-5-[(6,7-dimethoxyquinazolin-4-yl)amino]benzo-1,4-quinone]: the IC50 in data set [1] (ATP conc. 10 μM) was 4 nM; against KDR [2] it was 386 nM. Also, the inhibition at 0.1 µM was found to be 93% in data set [1] (ATP conc. 10 μM) and 28% in data set [5] (conc. 100 nM). The inhibition at 1 µM in data set [1] (ATP conc. 10 μM) is 94%; in data set [1] (ATP conc. 1000 μM), 96%; in data set [5] (conc. 1000 nM) it was 60%. In addition, the inhibition at 10 µM in data set [5] (conc. 10000 nM) was 94%. Also, the “% Inhibition … of HUVEC” value in data set [5] (conc. 100 nM) is listed as 20%; in data set [5] (conc. 1000 nM) it was 52%; in data set [5] (conc. 10000 nM), 78%. In addition, the “% Inhibition … in KDR15 cells” value on KDR [4] is 40% and 54% and 64%.
Consider `COCCOc1cc2ncnc(NC3=CC(=O)C(OCc4ccccc4)=CC3=O)c2cc1OC` [Example 96, 2-(benzyloxy)-5-{[6-methoxy-7-(2-methoxyethoxy)quinazolin-4-yl]amino}benzo-1,4-quinone], for which the melting point was 218 to 220 °C. Also, in data set [1] (ATP conc. 10 μM), the 50% inhibitory concentration (IC50) stood at 52.8 nM, the inhibition at 0.1 µM was 67% and the inhibition at 1 µM was determined as 91%. Moreover, the inhibition at 1 µM in data set [1] (ATP conc. 1000 μM) was 96%. Moreover, at KDR [2], the inhibition at 1 µM turned out to be 26%. Besides, the “% Inhibition … in KDR15 cells” value on KDR [4] is recorded as 22%.
`COc1cc2ncnc(NC3=CC(=O)C(c4ccccc4)=CC3=O)c2cc1OC` [Example 99, 2-[(6,7-dimethoxyquinazolin-4-yl)amino]-5-phenylbenzo-1,4-quinone] displayed a melting point of 200 to 205 °C. In data set [1] (ATP conc. 10 μM), the inhibition at 0.1 µM came out at 93% and the inhibition at 1 µM was found to be 92%. In data set [1] (ATP conc. 1000 μM), the inhibition at 1 µM is 96%. Also, the inhibition at 1 µM on KDR [2] was 20%. Further, the “% Inhibition … in KDR15 cells” value at KDR [4] was 29%.
